Drawing on patent publication US20240116845A1, “INDENE COMPOUNDS, PHARMACEUTICAL COMPOSITIONS THEREOF, AND THEIR THERAPEUTIC APPLICATIONS” (NucMito Pharmaceuticals Co., Ltd., priority 2021, published 2024), this text covers inhibition for six molecules.

What all share (type): cell-based
For assay [1], the system named is A549 (lung adenocarcinoma). Description: Antiproliferative activity, CCK-8 cell viability. The note with it: Homo sapiens, 72 h, read-out: Inhibition of Cancerous Cells, A549; for inhibition at 3.3 µM: compound concentration of 3.3 μM; for inhibition at 10 µM: compound concentration of 10 μM; for inhibition at 30 µM: compound concentration of 30 μM.
Assay [2] concerns HepG2 (liver cancer). As to the kind of experiment: Antiproliferative activity, CCK-8 cell viability. The note with it: Homo sapiens, 72 h, read-out: Inhibition of Cancerous Cells, HepG2; for inhibition at 3.3 µM: compound concentration of 3.3 μM; for inhibition at 10 µM: compound concentration of 10 μM; for inhibition at 30 µM: compound concentration of 30 μM. In outline:
(§1)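 Viability relative to DMSO controls came from CCK-8 absorbance at 450 nm after 72 h exposure at 37°C. Compound concentrations were 3.3, 10 or 30 μM, in DMEM plus 10% FBS. Results are categorised by inhibition level: at least 50%, 30 to under 50%, or under 30%.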

Assay [3] relates to SW480 (colon cancer). Description: Antiproliferative activity, CCK-8 cell viability. The note with it: Homo sapiens, 72 h, read-out: Inhibition of Cancerous Cells, SW480; for inhibition at 3.3 µM: compound concentration of 3.3 μM; for inhibition at 10 µM: compound concentration of 10 μM; for inhibition at 30 µM: compound concentration of 30 μM. In outline:
as §1

For assay [4], the system named is B16F10 (malignant melanoma). Description: Antiproliferative activity, CCK-8 cell viability. The note with it: Mus musculus, B16-F10, 72 h, read-out: Inhibition of Cancerous Cells, B16F10; for inhibition at 3.3 µM: compound concentration of 3.3 μM; for inhibition at 10 µM: compound concentration of 10 μM; for inhibition at 30 µM: compound concentration of 30 μM. Summed up:
as §1

For assay [5], the system named is MDA-MB-231 (breast cancer). As to the kind of experiment: Antiproliferative activity, CCK-8 cell viability. The note with it: Homo sapiens, 72 h, read-out: Inhibition of Cancerous Cells, MDA-MB-231; for inhibition at 3.3 µM: compound concentration of 3.3 μM; for inhibition at 10 µM: compound concentration of 10 μM; for inhibition at 30 µM: compound concentration of 30 μM. In outline:
as §1

In assay [6] the test system is HeLa (cervical cancer). Description: Antiproliferative activity, CCK-8 cell viability. The following applies: Homo sapiens, 72 h, read-out: Inhibition of Cancerous Cells, HELA; for inhibition at 3.3 µM: compound concentration of 3.3 μM; for inhibition at 10 µM: compound concentration of 10 μM; for inhibition at 30 µM: compound concentration of 30 μM.
Assay [7] relates to A431 (epidermoid carcinoma). Description: Antiproliferative activity, CCK-8 cell viability. The note with it: Homo sapiens, A-431, 72 h, read-out: Inhibition of Cancerous Cells, A431; for inhibition at 3.3 µM: compound concentration of 3.3 μM; for inhibition at 10 µM: compound concentration of 10 μM; for inhibition at 30 µM: compound concentration of 30 μM. Summed up:
as §1

Assay [8] deals with alpha-smooth muscle actin (α-SMA). Description: Inhibition of TGF-β induced expression of alpha-smooth muscle actin in CFSC cells (western blot). The note with it: compound at 10 μM, TGF-β (10 ng/mL), 24 hours. Summed up:
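Read-out is percent decrease in α-SMA western-blot band intensity, β-actin also probed, relative to TGF-β-only cells. CFSC cells were co-treated for 24 h at 37 °C with 10 ng/mL TGF-β and 10 μM compound in serum-free DMEM.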

SMILES strings stand for the structures.

For `CC1=C(CC(=O)N(C)O)c2cc(F)ccc2/C1=C\c1cccc(Oc2ccccc2)c1` [Compound B5, (Z)-2-(5-Fluoro-2-methyl-1-(3-phenoxybenzylidene)-1H-inden-3-yl)-N-hydroxy-N-methylacetamide], the inhibition at 3.3 µM in assay [1] is 30 to 50%; in assay [2], at least 50%; in assay [3] it was 30 to 50%; in assay [4], 30 to 50%; in assay [5], under 30%; in assay [6], under 30%. Besides, in assay [7], the inhibition at 3.3 µM was at least 50%. The inhibition at 10 µM in assay [1], in assay [2], in assay [3], in assay [4], in assay [5] and in assay [6] was at least 50% each time. In addition, the inhibition at 10 µM in assay [7] is at least 50%; in assay [8], 50 to 80%. Besides, the inhibition at 30 µM in assay [1], in assay [2], in assay [3], in assay [4], in assay [5] and in assay [6] was at least 50% throughout. For the same molecule, in assay [7], the inhibition at 30 µM was at least 50%.
Regarding `CC1=C(CC(=O)O)c2cc(F)ccc2/C1=C\c1ccc(Oc2ccc(F)c(F)c2)cc1` [Compound D5, 2-[(1Z)-5-Fluoro-2-methyl-1-({4-[3,4-difluorophenoxy]phenyl}methylidene)-1H-inden-3-yl]acetic acid], the inhibition at 3.3 µM in assay [1] is 30 to 50%; in assay [2], at least 50%; in assay [3], at least 50%; in assay [4], at least 50%; in assay [5] it was at least 50%; in assay [6], 30 to 50%. Further, in assay [7], the inhibition at 3.3 µM is under 30%. Further, the inhibition at 10 µM in assay [1], in assay [2], in assay [3], in assay [4], in assay [5] and in assay [6] was at least 50% in each case. The inhibition at 10 µM was at least 50% in assay [7] and at least 80% in assay [8]. The inhibition at 30 µM in assay [1], in assay [2], in assay [3], in assay [4], in assay [5] and in assay [6] was at least 50% throughout. The inhibition at 30 µM in assay [7] is at least 50%.
Regarding `O=C(O)CC1=C(Cc2ccccc2)/C(=C/c2ccc(Oc3ccc(F)cc3)cc2)c2ccc(F)cc21` [Compound D9, 2-[(1Z)-5-Fluoro-2-benzyl-1-({4-[4-fluorophenoxy]phenyl}methylidene)-1H-inden-3-yl]acetic acid], the inhibition at 3.3 µM in assay [1] is 30 to 50%; in assay [2], under 30%; in assay [3], 30 to 50%; in assay [4], under 30%; in assay [5], at least 50%; in assay [6], 30 to 50%. Also, in assay [7], the inhibition at 3.3 µM lay within 30 to 50%. Moreover, the inhibition at 10 µM is at least 50% in assay [1]; under 30% in assay [2]; at least 50% in assay [3]; at least 50% in assay [4]; at least 50% in assay [5]; 30 to 50% in assay [6]. Further, the inhibition at 10 µM in assay [7] is at least 50%; in assay [8] it was at least 80%. Also, the inhibition at 30 µM in assay [1], in assay [2], in assay [3], in assay [4], in assay [5] and in assay [6] was at least 50% throughout. Also, in assay [7], the inhibition at 30 µM is at least 50%.
Turning to `CC1=C(CC(=O)O)c2cc(F)ccc2/C1=C\c1ccc(Oc2ccc(F)cc2)cc1C(F)(F)F` [Compound D12, 2-[(1Z)-1-{[2-Trifluoromethyl-4-(4-fluorophenoxy)phenyl]methylidene}-5-fluoro-2-methyl-1H-inden-3-yl]acetic acid], the inhibition at 3.3 µM in assay [1] was 30 to 50%; in assay [2], at least 50%; in assay [3], 30 to 50%; in assay [4], under 30%; in assay [5], at least 50%; in assay [6], under 30%. Further, the inhibition at 3.3 µM in assay [7] was in the range of 30 to 50%. For the same molecule, the inhibition at 10 µM in assay [1] was at least 50%; in assay [2] it was at least 50%; in assay [3], at least 50%; in assay [4], at least 50%; in assay [5], at least 50%; in assay [6] it was under 30%. The figures for the inhibition at 10 µM in assay [7] and in assay [8] were at least 50% and under 30%, respectively. Moreover, the inhibition at 30 µM in assay [1] was at least 50%; in assay [2], at least 50%; in assay [3] it was at least 50%; in assay [4], at least 50%; in assay [5] it was at least 50%; in assay [6], under 30%. In addition, in assay [7], the inhibition at 30 µM was at least 50%.
`CC1=C(CC(=O)O)c2cc(F)ccc2/C1=C\c1ccc(Oc2ccc(F)cc2)c(C)c1` [Compound D13, 2-[(1Z)-1-{[3-Methyl-4-(4-fluorophenoxy)phenyl]methylidene}-5-fluoro-2-methyl-1H-inden-3-yl]acetic acid]: the inhibition at 3.3 µM is 30 to 50% in assay [1]; 30 to 50% in assay [2]; 30 to 50% in assay [3]; at least 50% in assay [4]; under 30% in assay [5]; under 30% in assay [6]. Moreover, the inhibition at 3.3 µM in assay [7] was 30 to 50%. Moreover, the inhibition at 10 µM in assay [1] is at least 50%; in assay [2], 30 to 50%; in assay [3] it was at least 50%; in assay [4] it was at least 50%; in assay [5] it was at least 50%; in assay [6], 30 to 50%. Moreover, the inhibition at 10 µM in assay [7] is at least 50%; in assay [8], under 30%. Further, the inhibition at 30 µM in assay [1], in assay [2], in assay [3], in assay [4], in assay [5] and in assay [6] was at least 50% throughout. For the same molecule, in assay [7], the inhibition at 30 µM was at least 50%.
Regarding `CC1=C(CC(=O)O)c2cc(F)ccc2/C1=C\c1ccc(Oc2ccc(F)cc2)cc1C` [Compound D14, 2-[(1Z)-1-{[2-Methyl-4-(4-fluorophenoxy)phenyl]methylidene}-5-fluoro-2-methyl-1H-inden-3-yl]acetic acid], the inhibition at 3.3 µM was 30 to 50% in assay [1]; 30 to 50% in assay [2]; 30 to 50% in assay [3]; at least 50% in assay [4]; 30 to 50% in assay [5]; under 30% in assay [6]. The inhibition at 3.3 µM in assay [7] was in the range of 30 to 50%. The inhibition at 10 µM is at least 50% in assay [1]; 30 to 50% in assay [2]; at least 50% in assay [3]; at least 50% in assay [4]; at least 50% in assay [5]; 30 to 50% in assay [6]. Besides, the inhibition at 10 µM in assay [7] is at least 50%; in assay [8] it was at least 80%. The inhibition at 30 µM in assay [1], in assay [2], in assay [3], in assay [4], in assay [5] and in assay [6] was at least 50% each time. Moreover, the inhibition at 30 µM in assay [7] was at least 50%.
